Results from PubChem BioAssay (NCI).
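Step 1: Grow cells in 96-well plates. Step 2: Expose to compound for 48 hours at 5 concentrations. Step 3: Interpolate endpoints linearly; if unreached, use highest concentration. TGI: total growth inhibition.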

What was measured:
Assay in all cases: NCI-60 cell line screen, 48 h
[1] = tested on: DMS 114 small cell lung
[2] = tested on: DMS 273 small cell lung
[3] = tested on: HL-60(TB) leukemia
[4] = tested on: K-562 leukemia
[5] = tested on: M19-MEL melanoma
[6] = tested on: MOLT-4 leukemia
[7] = tested on: OVCAR-5 ovarian
[8] = tested on: OVCAR-8 ovarian
[9] = tested on: SNB-78 CNS
[10] = tested on: U251 CNS

Row | SMILES | TGI [1] [µM] | TGI [2] [µM] | TGI [3] [µM] | TGI [4] [µM] | TGI [5] [µM] | TGI [6] [µM] | TGI [7] [µM] | TGI [8] [µM] | TGI [9] [µM] | TGI [10] [µM]
1 | O=[N+]([O-])c1cccc(C=NC23CC4CC(CC(C4)C2)C3)c1 | > 100 | > 100 | 65.6 | > 100 | > 100 | > 100 | > 100 | > 100 | > 100 | > 100
2 | CC[C@H]1[C@@H](C)C=C[C@@H](C)N1S(=O)(=O)c1ccc(C)cc1 | 34.9 | > 100 | 52 | > 100 | > 100 | > 100 | > 100 | > 100 | > 100 | > 100
3 | CCC(CO)COC(=O)/C=C/C(=O)OCC(CC)CO (stereo not given) | > 100 | > 100 | 45.5 | > 100 | > 100 | > 100 | > 100 | > 100 | > 100 | > 100
4 | Cc1cc2c(=O)cc(-c3ccc(O)cc3)oc2c(C(=O)O)c1C | > 100 | > 100 | > 100 | > 100 | > 100 | > 100 | > 100 | > 100 | > 100 | > 100
5 | Cc1ccc(S(=O)OC2c3ccccc3Cc3ccccc32)cc1 (stereo not given) | 34.8 | 33 | 44 | 62.1 | 40.8 | 75.7 | 31.7 | 28.9 | 46.1 | 78.5
6 | Cc1ccc(C)c(N2C(=O)C(=O)C(c3nc4ccccc4s3)C(=O)C2=O)c1 | > 100 | > 100 | > 100 | > 100 | > 100 | > 100 | > 100 | > 100 | > 100 | > 100
7 | CC1=CC=C2C(C)(C)CC[C@@H]3OC(=O)[C@H]1[C@]23C | > 100 | > 100 | > 100 | > 100 | > 100 | > 100 | > 100 | > 100 | > 100 | > 100
8 | C=CCC1=C2CCCCC2CCC1=O (stereo not given) | > 100 | > 100 | > 100 | > 100 | > 100 | > 100 | > 100 | > 100 | > 100 | > 100
9 | CCCCN(CCCC)C(=O)C(=O)C(C(=O)C(=O)OC)c1nc2ccccc2o1 (stereo not given) | > 100 | > 100 | > 100 | > 100 | > 100 | > 100 | > 100 | > 100 | > 100 | > 100
